# Assay results published in patent publication US9586953B2, “Prodrugs of amino quinazoline kinase inhibitor” (GlaxoSmithKline Intellectual Property Development Limited, priority 2012, dated 2017).
# Key:
# [1] = In vivo Assay (II): half life of the prodrug after oral administration in rat; settings: whole blood, rat (n=2), orally administered at a dose equivalent to 2 mg/kg of the parent ethanol compound, LC/MS, read-out: half life (T1/2)
# Procedure: (§1) 2-((4-(Benzo[d]thiazol-5-ylamino)-6-(tert-butylsulfonyl)quinazolin-7-yl)oxy)ethyl dihydrogen phosphate was orally administered at a dose equivalent to 2 mg/kg of 2-((4-(benzo[d]thiazol-5-ylamino)-6-(tert-butylsulfonyl)quinazolin-7-yl)oxy)ethanol to a series of test animals. Rats (n=2) and dogs (n=3) were administered 2-((4-(benzo[d]thiazol-5-ylamino)-6-(tert-butylsulfonyl)quinazolin-7-yl)oxy)ethyl dihydrogen phosphate, whereas minipigs (male Göttingen minipigs (n=3)) were administered 2-((4-(benzo[d]thiazol-5-ylamino)-6-(tert-butylsulfonyl)quinazolin-7-yl)oxy)ethyl disodium phosphate. Blood samples were taken from each test animal at intervals between 0 to 24 hrs (25 hrs in dog) after administration. The concentration 2-((4-(benzo[d]thiazol-5-ylamino)-6-(tert-butylsulfonyl)quinazolin-7-yl)oxy)ethanol in each sample was determined by LC/MS. The average blood concentrations of 2-((4-(benzo[d]thiazol-5-ylamino)-6-(tert-butylsulfonyl)quinazolin-7-yl)oxy)ethanol in each test species, following oral administration of 2-((4-(benzo[d]thiazol-5-ylamino)-6-(tert-butylsulfonyl)quinazolin-7-yl)oxy)ethyl dihydrogen phosphate or disodium phosphate are shown in FIG. 4.
# [2] = In vivo Assay (II): half life of the prodrug after oral administration in dog; settings: whole blood, dog (n=3), orally administered at a dose equivalent to 2 mg/kg of the parent ethanol compound, LC/MS, read-out: half life (T1/2)
# Procedure: as §1
# [3] = In vivo Assay (II): half life of the prodrug after oral administration in minipig; parameters: species or system male Göttingen minipigs; settings: male, Göttingen, whole blood, minipig (n=3), orally administered at a dose equivalent to 2 mg/kg of the parent ethanol compound, LC/MS, read-out: half life (T1/2)
# Procedure: as §1
SMILES,half-life [1] [min],half-life [2] [min],half-life [3] [min]
"CC(C)(C)S(=O)(=O)c1cc2c(Nc3ccc4scnc4c3)ncnc2cc1OCCOP(=O)(O)O [Example 1, 2-((4-(Benzo[d]thiazol-5-ylamino)-6-(tert-butylsulfonyl)quinazolin-7-yl)oxy)ethyl dihydrogen phosphate]",15,5,
"CC(C)(C)S(=O)(=O)c1cc2c(Nc3ccc4scnc4c3)ncnc2cc1OCCOP(=O)(O)O [Example 2, 2-((4-(Benzo[d]thiazol-5-ylamino)-6-(tert-butylsulfonyl)quinazolin-7-yl)oxy)ethyl disodium phosphate]",,,26
